Laboratory results: ChEMBL document CHEMBL3286321, “Facile Synthesis and Preliminary Structure-Activity Analysis of New Sulfonamides Against Trypanosoma brucei” (ACS Med Chem Lett, 2014)

Columns and labels:
[1] = Selectivity index, ratio of IC50 for HEK293 cells to IC50 for Trypanosoma brucei brucei 427; assay type: toxicity, cell-based; details: human, read-out: Ratio IC50
[2] = system: Trypanosoma brucei brucei; assay: Trypanocidal activity against logarithmic phase of Trypanosoma brucei brucei 427 assessed as inhibition of parasite viability after 48 hrs by Alamar blue viability assay; assay type: functional, organism-based; details: Trypanosoma brucei, 427, 48 h
[3] = system: Trypanosoma brucei brucei; assay: Trypanocidal activity against logarithmic phase of Trypanosoma brucei brucei 427 assessed as inhibition of parasite viability at 10 uM after 48 hrs by Alamar blue viability assay; assay type: functional; details: Trypanosoma brucei, 427, 48 h

CCS(=O)(=O)N1CCCc2ccc(NS(=O)(=O)c3cccs3)cc21
selectivity ratio [1]: 20.8 | IC50 [2]: 4 µM

CCS(=O)(=O)N1CCCc2ccc(NS(=O)(=O)c3ccccc3F)cc21
selectivity ratio [1]: 32

CCS(=O)(=O)N1CCCc2ccc(NS(=O)(=O)c3ccc(F)cc3)cc21
selectivity ratio [1]: 11.8 | IC50 [2]: 7.8 µM

CCS(=O)(=O)N1CCCc2ccc(NS(=O)(=O)c3cccc(F)c3)cc21
selectivity ratio [1]: 11.2 | IC50 [2]: 7.8 µM

CCS(=O)(=O)N1CCCc2ccc(NS(=O)(=O)c3c(F)cccc3F)cc21
inhibition at 10 µM [3]: 82%

CCS(=O)(=O)N1CCCc2ccc(NS(=O)(=O)c3c(F)c(F)c(F)c(F)c3F)cc21
inhibition at 10 µM [3]: 94%

CCS(=O)(=O)N1CCCc2ccc(NS(=O)(=O)c3ccc(Br)cc3F)cc21
selectivity ratio [1]: 9 | IC50 [2]: 9.9 µM

CCS(=O)(=O)N1CCCc2ccc(NS(=O)(=O)c3ccc(Br)s3)cc21
selectivity ratio [1]: 7.7 | IC50 [2]: 11.2 µM

CCS(=O)(=O)N1CCCc2ccc(NS(=O)(=O)c3ccc(Cl)s3)cc21
selectivity ratio [1]: 6.9 | IC50 [2]: 13.1 µM

CCS(=O)(=O)N1CCCc2ccc(NS(=O)(=O)c3ccc(C)cc3)cc21
selectivity ratio [1]: 25.8 | IC50 [2]: 3.4 µM

CCS(=O)(=O)Nc1ccc2c(c1)N(S(=O)(=O)CC)CCC2
inhibition at 10 µM [3]: 14%

CCS(=O)(=O)N1CCCc2ccc(NS(=O)(=O)CC(F)(F)F)cc21
inhibition at 10 µM [3]: 18%

CCCS(=O)(=O)N1CCCc2ccc(NS(=O)(=O)c3ccc(C)cc3)cc21
selectivity ratio [1]: 29 | IC50 [2]: 1.84 µM

CCCS(=O)(=O)N1CCCc2ccc(NS(=O)(=O)c3ccc(C(C)C)cc3)cc21
selectivity ratio [1]: 8.9 | IC50 [2]: 1.71 µM

CCCS(=O)(=O)N1CCCc2ccc(NS(=O)(=O)c3ccc(-c4ccccc4)cc3)cc21
selectivity ratio [1]: 16.6 | IC50 [2]: 5.7 µM

CCCS(=O)(=O)N1CCCc2ccc(NS(=O)(=O)c3ccccc3F)cc21
selectivity ratio [1]: 24.3 | IC50 [2]: 3.5 µM

CCCS(=O)(=O)N1CCCc2ccc(NS(=O)(=O)c3cccs3)cc21
inhibition at 10 µM [3]: < 10%

CCCS(=O)(=O)N1CCCc2ccc(NS(=O)(=O)c3ccccc3C)cc21
inhibition at 10 µM [3]: 11%

CCCS(=O)(=O)N1CCCc2ccc(NS(=O)(=O)c3cccc(C)c3)cc21
inhibition at 10 µM [3]: < 10%

CCCS(=O)(=O)N1CCCc2ccc(NS(=O)(=O)c3ccc(C)cc3C)cc21
selectivity ratio [1]: 10.4 | IC50 [2]: 9 µM

CCCS(=O)(=O)N1CCCc2ccc(NS(=O)(=O)c3cc(C)cc(C)c3)cc21
inhibition at 10 µM [3]: < 10%

CCCS(=O)(=O)N1CCCc2ccc(NS(=O)(=O)c3c(C)c(C)c(C)c(C)c3C)cc21
selectivity ratio [1]: 11.4 | IC50 [2]: 7.9 µM

O=S(=O)(Nc1ccc2c(c1)N(S(=O)(=O)c1cccs1)CCC2)c1cccs1
inhibition at 10 µM [3]: 35%

Cc1ccc(S(=O)(=O)Nc2ccc3c(c2)N(S(=O)(=O)c2cccs2)CCC3)cc1
selectivity ratio [1]: 2.5 | IC50 [2]: 3.1 µM

Cc1ccc(S(=O)(=O)N2CCCc3ccc(NS(=O)(=O)c4cccs4)cc32)cc1
selectivity ratio [1]: 1.7 | IC50 [2]: 7.9 µM

Cc1ccc(S(=O)(=O)Nc2ccc3c(c2)N(S(=O)(=O)c2ccc(C)cc2)CCC3)cc1
selectivity ratio [1]: 1.8 | IC50 [2]: 3.9 µM
